{"source": "patent US5162354A", "about": "“3-halo-5-halomethyl-2-oxazolidinones and their use as microbicides” (Buckman Laboratories International, Inc., priority 1991, dated 1992)", "assay_type_in_all_cases": "cell-based", "key": {"[1]": {"system": "mixture of Staphylococcus aureus, Enterobacter aerogenes and Pseudomonas aeruginosa", "assay": "Long-term effectiveness in water as disinfectant, basal salts method, mixture of test organisms", "conditions": "for killing at 80 ppm / killing at 40 ppm: 24 h; for activity maintained (percent kill): up to three days post-preparation in water, short contact (up to 10 min)", "procedure": "In order to test the effectiveness of the compounds of the present invention over a period of 15 days, the following experiment was conducted using Compound 1.\nThe basal salts method described in U.S. Pat. No. 2,881,070 at column 5, beginning at line 12 and extending to column 6, line 53 was performed at two different pH values and percent kills were obtained with a mixture of test organisms (Staphylococcus aureus, Enterobacter aerogenes and Pseudomonas aeruginosa). […] At 80 ppm, prolonged sanitizing ability is maintained (99% or greater) with prolonged exposure times (24 hours contact through 15 […] post-preparation in water).\n^a Control indicates the population of the test organism and is used\nto make sure there is vigorous growth and to calculate % kills."}, "[2]": {"system": "Chlorella pyrenoidosa", "assay": "Growth inhibiting activity against algae in Difco Algae Broth (Chlorella pyrenoidosa)", "conditions": "Auxenochlorella pyrenoidosa, 672 h, pH 7, read-out: Minimum inhibitory concentration against algae", "procedure": "(§1) The growth inhibiting activity of the method of the invention against the three algae Chlorella pyrenoidosa, Chlorococcum hypnosporum and Phormidium inundatum was evaluated in Difco Algae Broth, the content of which was as follows:\n(§2) Forty-gram portions of the algae medium were added to 250 mL Pyrex Erlenmeyer flasks fitted with loose metal caps and then sterilized. Each of the following substances was then added to the flasks in the order listed:\n(§3) 1. Sterile algae medium as required to bring the total weight of the contents of each flask to 50 grams, after allowing for all subsequent additions specified below.\n(§4) 2. A solution of one of compounds 1-4 or of a control agent to be evaluated in each test, to give the concentration desired in parts per million by weight.\n(§5) 3. Chlorella pyrenoidosa, Chlorococcum hypnosporum and Phormidium inundatum in amounts sufficient to give excellent growth in the controls after 14 days. This was achieved by adding 1 milliliter of a 14 day old culture having luxuriant growth. The Chlorella pyrenoidosa culture was obtained from American Type Culture Collection No. 7516; Chlorococcum hypnosporum, from the University of TX at Austin; and Phormidium inundatum, WI No. 1093, from the University of WA.\n(§6) As a control experiment, WSCP was used as a positive control agent. WSCP is a known toxicant which kills C. pyrenoidosa at 2 ppm, C. hypnosporum at 2ppm, and P. inundatum at 10 ppm. Control experiments were also carried out where no toxicants were employed. In the algicidal tests, the growth of algae in the nutrient medium is lush green and can be seen with the naked eye. Because the minimum inhibitory concentrations of the compounds in this example are those which result in complete inhibition, evaluation of the test results is not subjective.\n(§7) After the inoculum of the test algae was added, the flasks were incubated at a temperature of 28°±2° C. under fluorescent illumination of 250 foot-candle intensity (8 hours light, 16 hours darkness) for a period adequate for growth in the controls (those portions of medium which contained no toxicant). Observations of growth were made at 7-day intervals. Minimum inhibitory concentrations are those that prevented complete growth after 28 days."}, "[3]": {"system": "Escherichia coli", "assay": "AOAC Disinfectant Swimming Pool Assay (Escherichia coli)", "conditions": "10 min, contact time 10 minutes, read-out: MIC (Minimum inhibitory concentration required to inhibit microorganisms)", "procedure": "(§8) This example was based on the procedure described in AOAC (Association of Official Analytical Chemists) Official Methods of Analysis (1986) pp 75-77. The results obtained by this method are suitable for presumptive evidence of acceptability of products for disinfecting swimming pool water. The results obtained for Compound 1 in a contact time of 10 minutes are noted in Table IV."}, "[4]": {"system": "Chlorococcum hypnosporum", "assay": "Growth inhibiting activity against algae in Difco Algae Broth (Chlorococcum hypnosporum)", "conditions": "672 h, pH 7, read-out: Minimum inhibitory concentration against algae", "procedure": "as §1, §2, §3, §4, §5, §6, §7"}, "[5]": {"system": "Klebsiella pneumonia", "assay": "AOAC Disinfectant Swimming Pool Assay (Klebsiella pneumonia)", "conditions": "Klebsiella pneumoniae, 10 min, read-out: MIC (Minimum inhibitory concentration required to inhibit microorganisms)", "procedure": "as §8"}}, "note": "Like-named read-outs stand apart in the source and are kept apart here."}
{"smiles": "O=C1OC(CCl)CN1Br", "note": "(stereo not shown) [Compound 1, 3-Bromo-5-chloromethyl-2-oxazolidinone]", "values": [{"measurement": "killing at 80 ppm", "setting": "[1]; pH 6, Day 1 after preparation in soft water, 80 ppm, pH 6.0, 24 hours contact, read-out: % Reduction (Kill)", "result": 100, "unit": "%"}, {"measurement": "killing at 40 ppm", "setting": "[1]; pH 6, Day 2 after preparation in soft water, pH 6.0, 24 hours contact, read-out: % Reduction (Kill)", "result": 100, "unit": "%"}, {"measurement": "killing at 80 ppm", "setting": "[1]; pH 6, Day 2 after preparation in soft water, 80 ppm, pH 6.0, 24 hours contact, read-out: % Reduction (Kill)", "result": 100, "unit": "%"}, {"measurement": "killing at 40 ppm", "setting": "[1]; pH 6, Day 3 after preparation in soft water, pH 6.0, 24 hours contact, read-out: % Reduction (Kill)", "result": 100, "unit": "%"}, {"measurement": "killing at 80 ppm", "setting": "[1]; pH 6, Day 3 after preparation in soft water, 80 ppm, pH 6.0, 24 hours contact, read-out: % Reduction (Kill)", "result": 100, "unit": "%"}, {"measurement": "killing at 40 ppm", "setting": "[1]; pH 6, Day 4 after preparation in soft water, pH 6.0, 24 hours contact, read-out: % Reduction (Kill)", "result": 99.6, "unit": "%"}, {"measurement": "killing at 80 ppm", "setting": "[1]; pH 6, Day 4 after preparation in soft water, 80 ppm, pH 6.0, 24 hours contact, read-out: % Reduction (Kill)", "result": 99.9, "unit": "%"}, {"measurement": "killing at 40 ppm", "setting": "[1]; pH 6, Day 5 after preparation in soft water, pH 6.0, 24 hours contact, read-out: % Reduction (Kill)", "result": 91.8, "unit": "%"}, {"measurement": "killing at 80 ppm", "setting": "[1]; pH 6, Day 5 after preparation in soft water, 80 ppm, pH 6.0, 24 hours contact, read-out: % Reduction (Kill)", "result": 99.6, "unit": "%"}, {"measurement": "killing at 40 ppm", "setting": "[1]; pH 6, Day 14 after preparation in soft water, pH 6.0, 24 hours contact, read-out: % Reduction (Kill)", "result": 99.8, "unit": "%"}, {"measurement": "killing at 80 ppm", "setting": "[1]; pH 6, Day 14 after preparation in soft water, 80 ppm, pH 6.0, 24 hours contact, read-out: % Reduction (Kill)", "result": 100, "unit": "%"}, {"measurement": "killing at 40 ppm", "setting": "[1]; pH 6, Day 15 after preparation in soft water, pH 6.0, 24 hours contact, read-out: % Reduction (Kill)", "result": 96, "unit": "%"}, {"measurement": "killing at 80 ppm", "setting": "[1]; pH 6, Day 15 after preparation in soft water, 80 ppm, pH 6.0, 24 hours contact, read-out: % Reduction (Kill)", "result": 100, "unit": "%"}, {"measurement": "killing at 40 ppm", "setting": "[1]; pH 8, Day 1 after preparation in soft water, pH 8.0, 24 hours contact, read-out: % Reduction (Kill)", "result": 100, "unit": "%"}, {"measurement": "killing at 80 ppm", "setting": "[1]; pH 8, Day 1 after preparation in soft water, 80 ppm, pH 8.0, 24 hours contact, read-out: % Reduction (Kill)", "result": 100, "unit": "%"}, {"measurement": "killing at 40 ppm", "setting": "[1]; pH 8, Day 2 after preparation in soft water, pH 8.0, 24 hours contact, read-out: % Reduction (Kill)", "result": 100, "unit": "%"}, {"measurement": "killing at 80 ppm", "setting": "[1]; pH 8, Day 2 after preparation in soft water, 80 ppm, pH 8.0, 24 hours contact, read-out: % Reduction (Kill)", "result": 100, "unit": "%"}, {"measurement": "killing at 40 ppm", "setting": "[1]; pH 8, Day 3 after preparation in soft water, pH 8.0, 24 hours contact, read-out: % Reduction (Kill)", "result": 100, "unit": "%"}, {"measurement": "killing at 80 ppm", "setting": "[1]; pH 8, Day 3 after preparation in soft water, 80 ppm, pH 8.0, 24 hours contact, read-out: % Reduction (Kill)", "result": 100, "unit": "%"}, {"measurement": "killing at 40 ppm", "setting": "[1]; pH 8, Day 4 after preparation in soft water, pH 8.0, 24 hours contact, read-out: % Reduction (Kill)", "result": 98.7, "unit": "%"}, {"measurement": "killing at 80 ppm", "setting": "[1]; pH 8, Day 4 after preparation in soft water, 80 ppm, pH 8.0, 24 hours contact, read-out: % Reduction (Kill)", "result": 100, "unit": "%"}, {"measurement": "killing at 40 ppm", "setting": "[1]; pH 8, Day 5 after preparation in soft water, pH 8.0, 24 hours contact, read-out: % Reduction (Kill)", "result": 99.9, "unit": "%"}, {"measurement": "killing at 80 ppm", "setting": "[1]; pH 8, Day 5 after preparation in soft water, 80 ppm, pH 8.0, 24 hours contact, read-out: % Reduction (Kill)", "result": 99.9, "unit": "%"}, {"measurement": "killing at 40 ppm", "setting": "[1]; pH 8, Day 14 after preparation in soft water, pH 8.0, 24 hours contact, read-out: % Reduction (Kill)", "result": 99.5, "unit": "%"}, {"measurement": "killing at 80 ppm", "setting": "[1]; pH 8, Day 14 after preparation in soft water, 80 ppm, pH 8.0, 24 hours contact, read-out: % Reduction (Kill)", "result": 99.9, "unit": "%"}, {"measurement": "killing at 40 ppm", "setting": "[1]; pH 8, Day 15 after preparation in soft water, pH 8.0, 24 hours contact, read-out: % Reduction (Kill)", "result": 99.3, "unit": "%"}, {"measurement": "killing at 80 ppm", "setting": "[1]; pH 8, Day 15 after preparation in soft water, 80 ppm, pH 8.0, 24 hours contact, read-out: % Reduction (Kill)", "result": 100, "unit": "%"}, {"measurement": "killing at 80 ppm", "setting": "[1]; read-out: prolonged sanitizing ability maintained (percent kill), 80 ppm, 24 hours contact, through 15 days post-preparation in water", "result": "≥ 99", "unit": "%"}, {"measurement": "activity maintained (percent kill)", "setting": "[1]; pH 6", "result": "≥ 99.99", "unit": "%"}, {"measurement": "activity maintained (percent kill)", "setting": "[1]; pH 8", "result": "≥ 99.96", "unit": "%"}, {"measurement": "MIC", "setting": "[2]", "result": 10, "unit": "µg/mL"}, {"measurement": "MIC", "setting": "[3]", "result": 80, "unit": "µg/mL"}, {"measurement": "MIC", "setting": "[4]", "result": 10, "unit": "µg/mL"}, {"measurement": "MIC", "setting": "[5]", "result": 100, "unit": "µg/mL"}]}
